# Experimental data published in patent publication US6967196B1, “Sulfonamide compounds and uses thereof” (Bristol-Myers Squibb Company, priority 1999, dated 2005).
# Counter-ions that a name gives are not always drawn. Like-named read-outs stand apart in the source and are kept apart here.
# Test system: amyloid β production in transfected H4 (human neuroglioma) cells stably expressing APP constructs
# Test: In vitro cell-based assay of inhibitors of amyloid β production (ELISA)
# Details: amyloid β in medium by ELISA, read-out: ACTIVITY (IC50, inhibition of amyloid β production)
# Outline: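 Cells expressing wild-type or variant APP were plated ≥6 h before medium was replaced with compound-containing medium (initial screen 10-100 μM) and incubated ~16 h. Secreted Aβ in medium was quantified by sandwich ELISA (C-terminal-specific mouse monoclonal capture, N-terminal rabbit polyclonal detection) against an Aβ standard curve.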
# [1] = transfected H4 cells stably expressing APP constructs, approximately 16 hours incubation
# [2] = transfected H4 cells stably expressing APP, approx. 16 h incubation
# [3] = transfected H4 cells stably expressing APP, approximately 16 hours incubation
# [4] = Homo sapiens, 16 h, transfected H4 cells expressing APP, approximately 16 hours incubation
# [5] = Homo sapiens, 16 h, transfected H4 cells stably expressing APP, approximately 16 hours incubation
molecule,measurement,setting,value
"C[C@H](CCCCN1CCC(CS(C)(=O)=O)CC1)N(c1cc(Cl)ccc1Cl)S(=O)(=O)c1ccc(Cl)cc1 [Example 1150, 4-chloro-N-(2,5-dichlorophenyl)-N-[5-[[4-(methylsulfonyl)methyl]-1-piperidinyl]-1(R)-methylpentyl]benzenesulfonamide]",IC50,[1],100 to 500 nM
"2,2,2-trichloro-N-{2-[2-(1-{[(4-chlorophenyl)sulfonyl]-2,5-difluoroanilino}ethyl)phenoxy]ethyl}-N-ethylacetamide [Example 744]",IC50,[2],100 to 500 nM
"(E)-N-(2,5-dichlorophenyl)-2-phenyl-N-{2-[3-(1-piperidinyl)propoxy]benzyl}ethanesulfonamide hydrochloride [Example 994]",IC50,[3],> 500 nM
"O=S(=O)(c1ccc(Cl)cc1)N(Cc1ccccc1OCCCN1CCCCC1)CC1CC1 [Example 984, 4-chloro-N-(cyclopropylmethyl-N-{2-[3-(1-piperidinyl)propoxy]benzyl}benzenesulfonamide hydrochloride]",IC50,[3],> 500 nM
"N-{3-[2-(1-{[(4-chlorophenyl)sulfonyl]-2,5-difluoroanilino}ethyl)phenoxy]propyl}-4-iodobenzamide [Example 824]",IC50,[3],100 to 500 nM
C[C@H](C(=O)NCCc1c(Cl)cccc1Cl)N(c1cc(Cl)ccc1F)S(=O)(=O)c1ccc(Cl)cc1 [Example 1314],IC50,[4],100 to 500 nM
CC([C@@H]1CCCN1)N(c1cc(Cl)ccc1Cl)S(=O)(=O)c1ccc(Cl)cc1 (stereo partly drawn) [Example 1254],IC50,[1],> 500 nM
C[C@H](C(=O)NCc1ccccn1)N(c1cc(Cl)ccc1F)S(=O)(=O)c1ccc(Cl)cc1 [Example 610],IC50,[2],100 to 500 nM
"CSc1cccc(N(Cc2ccccc2OCCCN2CCCCC2)S(=O)(=O)c2ccc(Cl)cc2)c1 [Example 952, 4-chloro-N-[3-(methylsulfanyl)phenyl]N-{2-[3-(1-piperidinyl)propoxy]benzyl}benzenesulfonamide hydrochloride]",IC50,[5],> 500 nM
"O=C(c1cccc(F)c1)N1CCCCC1CCOc1ccccc1CN(c1cc(F)ccc1F)S(=O)(=O)c1ccc(Cl)cc1 (stereo not drawn) [Example 661, 4-chloro-N-(2,5-difluorophenyl)-N-(2-{2-[1-(3-fluorobenzoyl)-2-piperidinyl]ethoxy}benzyl)benzenesulfonamide]",IC50,"Homo sapiens, 16 h, transfected H4 cells stably expressing APP, approx. 16 h incubation",100 to 500 nM
"COc1ccc(S(=O)(=O)CCCOc2ccccc2CN(Nc2cc(F)ccc2F)S(=O)(=O)c2ccc(Cl)cc2)cc1 [Example 871, 4-chloro-N-(2,5-difluoroanilino)-N-(2-{3-[(4-methoxyphenyl)sulfonyl]propoxy}benzyl)benzenesulfonamide]",IC50,[5],100 to 500 nM
C[C@H](COC(=O)NCCn1ccnc1)N(c1cc(Cl)ccc1CO)S(=O)(=O)c1ccc(Cl)cc1 [Example 1293],IC50,[4],> 10000 nM
"O=C(c1ccc(-c2ccccc2)cc1)N1CCCCC1CCOc1ccccc1CN(c1cc(F)ccc1F)S(=O)(=O)c1ccc(Cl)cc1 (stereo not drawn) [Example 845, N-(2-{2-[1-([1,1′-biphenyl]-4-ylcarbonyl)-2-piperidinyl]ethoxy}benzyl)-4-chloro-N-(2,5-difluorophenyl)benzenesulfonamide]",IC50,[5],100 to 500 nM
"N-{3-[2-(1-{[(4-chlorophenyl)sulfonyl]-2,5-difluoroanilino}ethyl)phenoxy]propyl}-3-methoxy-N-methylbenzamide [Example 786]",IC50,[2],100 to 500 nM
"C[C@H](CCCS(N)(=O)=O)N(c1cc(Cl)ccc1Cl)S(=O)(=O)c1ccc(Cl)cc1 [Example 1210, N-[4-(aminosulfonyl)-1(R)-methylbutyl]-4-chloro-N-(2,5-dichlorophenyl)benzenesulfonamide]",IC50,"Homo sapiens, 16 h, transfected H4 cells stably expressing APP constructs, approximately 16 hours incubation",≤ 25 nM
"CC(C)Oc1c(NCC[C@@H](C)N(c2cc(F)ccc2F)S(=O)(=O)c2ccc(Cl)cc2)c(=O)c1=O [Example 1141, 4-chloro-N-(2,5-difluorophenyl)-N-[3-(2-isopropoxy-3,4-dioxo-1-cyclobutenyl)amine-1(R)-methylpropyl]benzenesulfonamide]",IC50,[1],100 to 500 nM
"C[C@H](c1ccc(F)cc1CCCC(=O)O)N(c1cc(F)ccc1F)S(=O)(=O)c1ccc(Cl)cc1 [Example 1069, 4-[2-((1R)-1-{[(4-chlorophenyl)sulfonyl]-2,5-difluoroanilino}ethyl)-5-fluorophenyl]butanoic acid]",IC50,[3],> 500 nM
"O=C(c1ccc2c(c1)OCO2)N1CCCCC1CCOc1ccccc1CN(c1cc(F)ccc1F)S(=O)(=O)c1ccc(Cl)cc1 (stereo not drawn) [Example 921, N-(2-{2-[1-(1,3-benzodioxol-5-ylcarbonyl)-2-piperidinyl]ethoxy}benzyl)-4-chloro-N-(2,5-difluorophenyl)benzenesulfonamide]",IC50,[5],> 500 nM
"C[C@H](COC(=O)NCCc1c[nH]cn1)N(c1cc(Cl)ccc1F)S(=O)(=O)c1ccc(Cl)cc1 [Example 1245, 4-Chloro-N-(2-fluoro-5-chlorophenyl)-N-[2-[[N′-[2-(1H-imidazol-4-yl)ethylamino]carbonyl]oxy]-(R)-1-methylethyl]benzenesulfonamide]",IC50,[1],≤ 25 nM
C[C@H](CCC[S+]([O-])C(C)(C)C)N(c1cc(Cl)ccc1CO)S(=O)(=O)c1ccc(Cl)cc1 (stereo partly drawn) [Example 1221],IC50,[1],≤ 25 nM
"N-{2-[2-(1-{[(4-chlorophenyl)sulfonyl]-2,5-difluoroanilino}ethyl)phenoxy]ethyl}-N-ethyl-3-methylbutanamide [Example 694]",IC50,[2],100 to 500 nM
(2E)-1-N-(benzyloxy)-3-[2-({[(4-chlorophenyl)sulfonyl]anilino}methyl)phenyl]-2-propenamide hydrochloride [Example 1093],IC50,[1],> 10000 nM
C[C@H](COC(=O)N1CCC[C@H]1CO)N(c1cc(Cl)ccc1Cl)S(=O)(=O)c1ccc(Cl)cc1 [Example 1241],IC50,[1],≤ 25 nM
"C[C@H](c1ccccc1OCCCn1ccnc1)N(c1cccc(F)c1)S(=O)(=O)c1ccc(Cl)cc1 [Example 895, 4-chloro-N-(3-fluorophenyl)-N-((1R)-1-{2-[3-(1H-imidazol-1-yl)propoxy]phenyl}ethyl)benzenesulfonamide hydrochloride]",IC50,[5],> 500 nM
"N-{3-[2-(1-{[(4-chlorophenyl)sulfonyl]-2,5-difluoroanilino}ethyl)phenoxy]propyl}-2,3,4-trifluoro-N-methylbenzamide [Example 670]",IC50,[2],100 to 500 nM
CC(CCOC(=O)NCCn1ccnc1)N(c1cc(Cl)ccc1CO)S(=O)(=O)c1ccc(Cl)cc1 (stereo not drawn) [Example 1291],IC50,[4],≤ 25 nM
"O=S(=O)(c1ccc(Cl)cc1)N(Cc1ccccc1CCCCN1CCCCC1)c1ccccc1 [Example 981, 4-chloro-N-phenyl-N-{2-[4-(1-piperdinyl)butyl]benzyl}benzenesulfonamide hydrochloride]",IC50,[3],> 500 nM
"COC(=O)[C@@H](NC(=O)CC[C@@H](C)N(c1cc(Cl)ccc1F)S(=O)(=O)c1ccc(Cl)cc1)C(C)C [Example 537, (R)-4-Chloro-N-(5-chloro-2-fluorophenyl)-N-[4-[N-(S)-[1-(methoxycarbonyl)-2-methylpropyl]amino]1-methyl-4-oxobutyl]benzenesulfonamide]",IC50,"transfected H4 cells stably expressing APP, approximately 16 hours incubation, Table B",100 to 500 nM
"COC(=O)[C@@H](CC(C)C)NC(=O)CCC[C@@H](C)N(c1cc(Cl)ccc1F)S(=O)(=O)c1ccc(Cl)cc1 [Example 1267, (R)-4-Chloro-N-(5-chloro-2-fluorophenyl)-N-[5-[N-(R)-[1-(methoxycarbonyl)-3-methylbutyl]amino]-1-methyl-5-oxopentyl]benzenesulfonamide]",IC50,[1],25 to 50 nM
"N-{3-[2-({[(4-chlorophenyl)sulfonyl]-2,5-difluoroanilino}methyl)phenoxy]propyl}-N-methylbutanamide [Example 638]",IC50,[2],100 to 500 nM
